The text below walks through data of PubChem BioAssay AID212 (DTP/NCI, 2004).

“And” between values parts separate entries of the source, which are not always exact repeats. Equal entries are not always repeated. Results filed as inconclusive are left out.

This assay has as its system BDF1 mice, colon carcinoma 38 sc, T/C %. Kind of assay: NCI In Vivo Anticancer Drug Screen. Data for tumor model Colon Carcinoma 38 (subcutaneous) in B6D2F1 (BDF1) mice. In short, it runs like this: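 Mice with transplanted tumors are treated with compound or vehicle. Survival or tumor size is then measured in both groups. The ratio of treated to control gives the reported figure.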

[1] abbreviates: endpoint: median tumor weight (est.), dose: 25.0 mg/kg/injection, schedule: Q07DX002 (ip), vehicle: Klucel (hydroxypropylcellulose) (HPC), higher = larger tumour.
[2] abbreviates: endpoint: median tumor weight (est.), dose: 50.0 mg/kg/injection, schedule: Q07DX002 (ip), vehicle: Klucel (hydroxypropylcellulose) (HPC), higher = larger tumour.
Setting [3] is: endpoint: median tumor weight (est.), dose: 100.0 mg/kg/injection, schedule: Q07DX002 (ip), vehicle: Klucel (hydroxypropylcellulose) (HPC), higher = larger tumour.
Where [4] appears, read: endpoint: median tumor weight (est.), dose: 200.0 mg/kg/injection, schedule: Q07DX002 (ip), vehicle: Klucel (hydroxypropylcellulose) (HPC), higher = larger tumour.
Where [5] appears, read: endpoint: median tumor weight (est.), dose: 400.0 mg/kg/injection, schedule: Q07DX002 (ip), vehicle: Klucel (hydroxypropylcellulose) (HPC), higher = larger tumour.
The mark [6] stands for this setting: endpoint: median tumor weight (est.), dose: 6.25 mg/kg/injection, schedule: Q07DX002 (ip), vehicle: saline, higher = larger tumour.
The mark [7] stands for this setting: endpoint: median tumor weight (est.), dose: 12.5 mg/kg/injection, schedule: Q07DX002 (ip), vehicle: saline, higher = larger tumour.
Where [8] appears, read: endpoint: median tumor weight (est.), dose: 25.0 mg/kg/injection, schedule: Q07DX002 (ip), vehicle: saline, higher = larger tumour.
[9] abbreviates: endpoint: median tumor weight (est.), dose: 50.0 mg/kg/injection, schedule: Q07DX002 (ip), vehicle: saline, higher = larger tumour.
[10] abbreviates: endpoint: median tumor weight (est.), dose: 12.5 mg/kg/injection, schedule: Q07DX002 (ip), vehicle: saline with Tween-80, higher = larger tumour.
[11] abbreviates: endpoint: median tumor weight (est.), dose: 25.0 mg/kg/injection, schedule: Q07DX002 (ip), vehicle: saline with Tween-80, higher = larger tumour.
Setting [12] is: endpoint: median tumor weight (est.), dose: 200.0 mg/kg/injection, schedule: Q07DX002 (ip), vehicle: saline with Tween-80, higher = larger tumour.
Where [13] appears, read: endpoint: median tumor weight (est.), dose: 100.0 mg/kg/injection, schedule: Q07DX002 (ip), vehicle: saline, higher = larger tumour.
Setting [14] is: endpoint: median tumor weight (est.), dose: 200.0 mg/kg/injection, schedule: Q07DX002 (ip), vehicle: saline, higher = larger tumour.
Setting [15] is: endpoint: median tumor weight (est.), dose: 400.0 mg/kg/injection, schedule: Q07DX002 (ip), vehicle: saline, higher = larger tumour.
[16] abbreviates: endpoint: median tumor weight (est.), dose: 6.25 mg/kg/injection, schedule: Q07DX002 (ip), vehicle: saline with Tween-80, higher = larger tumour.
Where [17] appears, read: endpoint: median tumor weight (est.), dose: 100.0 mg/kg/injection, schedule: Q07DX002 (ip), vehicle: saline with Tween-80, higher = larger tumour.
Setting [18] is: endpoint: median tumor weight (est.), dose: 50.0 mg/kg/injection, schedule: Q07DX002 (ip), vehicle: saline with Tween-80, higher = larger tumour.

`CCCCC(C)(C(=O)OCC)C(=O)OCC`: the T/C is 68 % of control and 69 % of control (endpoint: median tumor weight (est.), dose: 25.0 mg/kg/injection, schedule: Q07DX003 (ip), vehicle: Klucel (hydroxypropylcellulose) (HPC), higher = larger tumour); 63 % of control and 85 % of control (endpoint: median tumor weight (est.), dose: 200.0 mg/kg/injection, schedule: Q07DX003 (ip), vehicle: Klucel (hydroxypropylcellulose) (HPC), higher = larger tumour); 91 % of control and 102 % of control (endpoint: median tumor weight (est.), dose: 400.0 mg/kg/injection, schedule: Q07DX003 (ip), vehicle: Klucel (hydroxypropylcellulose) (HPC), higher = larger tumour).

Turning to `O=c1[nH]cc(F)c(=O)[nH]1`, the T/C runs as follows: (endpoint: median survival time, dose: 16.2 mg/kg/injection, schedule: Q04DX002 (ip), vehicle: saline, higher = longer survival) 119 % of control; (endpoint: median survival time, dose: 21.1 mg/kg/injection, schedule: Q01DX010 (ip), vehicle: saline, higher = longer survival) 199 % of control; (endpoint: median survival time, dose: 34.0 mg/kg/injection, schedule: Q01DX010 (ip), vehicle: saline, higher = longer survival) 199 % of control; (endpoint: median survival time, dose: 36.0 mg/kg/injection, schedule: Q04DX003 (ip), vehicle: saline, higher = longer survival) 119 % of control; (endpoint: median survival time, dose: 42.0 mg/kg/injection, schedule: Q04DX004 (ip), vehicle: saline, higher = longer survival) 122 % of control; (endpoint: median survival time, dose: 60.0 mg/kg/injection, schedule: Q04DX004 (ip), vehicle: alkali diluted with saline, higher = longer survival) 197 % of control and 204 % of control. The T/C was 124 % of control (endpoint: median survival time, dose: 73.0 mg/kg/injection, schedule: Q07DX003 (iv), vehicle: saline, higher = longer survival); 233 % of control (endpoint: median survival time, dose: 75.0 mg/kg/injection, schedule: Q04DX002 (ip), vehicle: saline, higher = longer survival); 72 % of control (endpoint: median survival time, dose: 100.0 mg/kg/injection, schedule: Q04DX004 (ip), vehicle: alkali diluted with saline, higher = longer survival); 57 % of control (endpoint: median survival time, dose: 167.0 mg/kg/injection, schedule: Q04DX004 (ip), vehicle: alkali diluted with saline, higher = longer survival); 65 % of control (endpoint: median tumor weight (est.), dose: 21.6 mg/kg/injection, schedule: Q04DX004 (ip), vehicle: saline, higher = larger tumour); 38 % of control (endpoint: median tumor weight (est.), dose: 36.0 mg/kg/injection, schedule: Q04DX004 (ip), vehicle: saline, higher = larger tumour).

For `C=C(C)[C@@H]1CCc2c(O)c(O)c(=O)cc(C)c2C1`, the T/C runs as follows: under setting [1], 102 % of control; under setting [2], 64 % of control; under setting [3], 85 % of control; under setting [4], 96 % of control; under setting [5], 102 % of control.

As for `CSC(SC)=C1C(=O)NC(=O)NC1=O`, the T/C by setting is: under setting [6], 85 % of control; under setting [7], 70 % of control; under setting [8], 83 % of control; under setting [9], 45 % of control.

Regarding `Nc1ccn(C2CC(O)C(CO)O2)c(=O)n1` (configuration not stated), the T/C is, setting by setting: (endpoint: median tumor weight (est.), dose: 42.19 mg/kg/injection, schedule: Q07DX002 (ip), vehicle: water, higher = larger tumour) 124 % of control; (endpoint: median tumor weight (est.), dose: 84.38 mg/kg/injection, schedule: Q07DX002 (ip), vehicle: water, higher = larger tumour) 79 % of control; (endpoint: median tumor weight (est.), dose: 337.5 mg/kg/injection, schedule: Q07DX002 (ip), vehicle: water, higher = larger tumour) 110 % of control.

Take `C[CH2][Sn]([CH2]C)([O]S(C)(=O)=O)[O]S(C)(=O)=O`: the T/C (endpoint: median tumor weight (est.), dose: 1.56 mg/kg/injection, schedule: Q07DX002 (ip), vehicle: saline, higher = larger tumour) is 18 % of control; the T/C (endpoint: median tumor weight (est.), dose: 3.13 mg/kg/injection, schedule: Q07DX002 (ip), vehicle: saline, higher = larger tumour) is 78 % of control; the T/C under setting [6] is 108 % of control and 117 % of control and 96 % of control; the T/C under setting [8] is 26 % of control.

On to `CC(=O)Nc1ccc(C(=O)C=O)cc1`, for which the T/C reads like this: under setting [10], 62 % of control and 78 % of control; under setting [11], 87 % of control and 100 % of control; under setting [12], 92 % of control.

`COc1ccc(Cl)[n+]([O-])n1`: the T/C is 83 % of control (endpoint: median tumor weight (est.), dose: 6.25 mg/kg/injection, schedule: Q07DX002 (ip), vehicle: Klucel (hydroxypropylcellulose) (HPC), higher = larger tumour); 87 % of control (endpoint: median tumor weight (est.), dose: 12.5 mg/kg/injection, schedule: Q07DX002 (ip), vehicle: Klucel (hydroxypropylcellulose) (HPC), higher = larger tumour); 89 % of control under setting [1]; 81 % of control under setting [2]; 90 % of control under setting [3].

For `Cc1ccc(S(=O)(=O)NC(=O)C2C(=O)CC3(CCCCC3)CC2=O)cc1`, the T/C reads like this: under setting [2], 104 % of control; under setting [3], 112 % of control; under setting [4], 95 % of control; under setting [5], 102 % of control.

With `COC(OC(CO)C(O)S(=O)(=O)O)C(O)S(=O)(=O)O` (configuration not stated), the T/C runs as follows: under setting [7], 113 % of control; (endpoint: median tumor weight (est.), dose: 12.5 mg/kg/injection, schedule: Q07DX003 (ip), vehicle: saline, higher = larger tumour) 123 % of control; under setting [8], 108 % of control; (endpoint: median tumor weight (est.), dose: 25.0 mg/kg/injection, schedule: Q07DX003 (ip), vehicle: saline, higher = larger tumour) 100 % of control; under setting [9], 123 % of control and 105 % of control; (endpoint: median tumor weight (est.), dose: 50.0 mg/kg/injection, schedule: Q07DX003 (ip), vehicle: saline, higher = larger tumour) 97 % of control. The T/C by setting is: under setting [13], 95 % of control and 105 % of control; (endpoint: median tumor weight (est.), dose: 100.0 mg/kg/injection, schedule: Q07DX003 (ip), vehicle: saline, higher = larger tumour) 110 % of control; under setting [14], 80 % of control and 105 % of control; (endpoint: median tumor weight (est.), dose: 200.0 mg/kg/injection, schedule: Q07DX003 (ip), vehicle: saline, higher = larger tumour) 98 % of control; under setting [15], 85 % of control and 86 % of control; (endpoint: median tumor weight (est.), dose: 400.0 mg/kg/injection, schedule: Q07DX003 (ip), vehicle: saline, higher = larger tumour) 50 % of control.

Regarding `O=C(CO)c1ccc([N+](=O)[O-])cc1`, the T/C is 72 % of control under setting [16]; 105 % of control under setting [10]; 90 % of control under setting [11]; 97 % of control under setting [17]; 80 % of control under setting [12].

Regarding `COC1=CC(=O)C(OC)=C(OC)C1=O`, the T/C was 115 % of control and 92 % of control under setting [16]; 160 % of control and 185 % of control under setting [10]; 62 % of control and 65 % of control under setting [18]; 152 % of control under setting [17]; 189 % of control under setting [12].

As to `Cc1oc2c(C)c3oc(=O)cc(C)c3cc2c1CCl`, the T/C is 77 % of control and 89 % of control under setting [10]; 74 % of control and 77 % of control under setting [18]; 53 % of control under setting [12]; 94 % of control (endpoint: median tumor weight (est.), dose: 400.0 mg/kg/injection, schedule: Q07DX002 (ip), vehicle: saline with Tween-80, higher = larger tumour).

On to `O=Cc1ccc(C(Cl)(Cl)Cl)cc1`, for which the T/C by setting is: under setting [10], 47 % of control; under setting [7], 78 % of control; under setting [11], 74 % of control; under setting [8], 79 % of control; under setting [9], 74 % of control; under setting [17], 93 % of control. The T/C under setting [13] was 88 % of control, the T/C under setting [12] is 66 % of control, the T/C under setting [14] was 67 % of control and the T/C under setting [15] is 82 % of control.

Consider `CCN(CC)CCOC(=O)/C=C\c1cccc2c(=O)cc(-c3ccccc3)oc12`, for which the T/C is 102 % of control under setting [3], 65 % of control under setting [4] and 52 % of control under setting [5].

In the case of `C[C@]12CC[C@H]3[C@@H](CCC4=C[C@@H](OC5OCC(OC6OC(CO)C(O)C(O)C6O)C(O)C5O)CC[C@@]43C=O)[C@@]1(O)CCC2C1=CC(=O)OC1` (some centres not stated), the T/C is, setting by setting: (endpoint: median tumor weight (est.), dose: 0.31 mg/kg/injection, schedule: Q07DX003 (ip), vehicle: Klucel (hydroxypropylcellulose) (HPC), higher = larger tumour) 106 % of control; (endpoint: median tumor weight (est.), dose: 1.25 mg/kg/injection, schedule: Q07DX003 (ip), vehicle: Klucel (hydroxypropylcellulose) (HPC), higher = larger tumour) 53 % of control; (endpoint: median tumor weight (est.), dose: 2.5 mg/kg/injection, schedule: Q07DX003 (ip), vehicle: Klucel (hydroxypropylcellulose) (HPC), higher = larger tumour) 102 % of control; (endpoint: median tumor weight (est.), dose: 5.0 mg/kg/injection, schedule: Q07DX003 (ip), vehicle: Klucel (hydroxypropylcellulose) (HPC), higher = larger tumour) 105 % of control; (endpoint: median tumor weight (est.), dose: 10.0 mg/kg/injection, schedule: Q07DX003 (ip), vehicle: Klucel (hydroxypropylcellulose) (HPC), higher = larger tumour) 95 % of control.
